Experiments:
Assay type in all cases: functional
[1] = tested on: K562; assay: Growth inhibition of human K562 cells assessed as cell growth at 10^-8 M incubated for 48 hrs by sulforhodamine B assay relative to control; conditions: K562, 48 h, read-out: Activity
[2] = tested on: SR; assay: Growth inhibition of human SR cells assessed as cell growth at 10^-8 M incubated for 48 hrs by sulforhodamine B assay relative to control; conditions: read-out: Activity
[3] = tested on: HOP-92; assay: Growth inhibition of human HOP92 cells assessed as cell growth at 10^-8 M incubated for 48 hrs by sulforhodamine B assay relative to control; conditions: HOP-92, 48 h, read-out: Activity
[4] = tested on: NCI-H23; assay: Growth inhibition of human NCI-H23 cells assessed as cell growth at 10^-8 M incubated for 48 hrs by sulforhodamine B assay relative to control; conditions: NCI-H23, 48 h, read-out: Activity
[5] = tested on: Malme-3M; assay: Growth inhibition of human MALME-3M cells assessed as cell growth at 10^-8 M incubated for 48 hrs by sulforhodamine B assay relative to control; conditions: read-out: Activity
[6] = tested on: SK-MEL-2; assay: Growth inhibition of human SK-MEL-2 cells assessed as cell growth at 10^-8 M incubated for 48 hrs by sulforhodamine B assay relative to control; conditions: SK-MEL-2, 48 h, read-out: Activity
[7] = tested on: UACC-257; assay: Growth inhibition of human UACC257 cells assessed as cell growth at 10^-8 M incubated for 48 hrs by sulforhodamine B assay relative to control; conditions: UACC-257, 48 h, read-out: Activity
[8] = tested on: IGROV-1; assay: Growth inhibition of human IGROV1 cells assessed as cell growth at 10^-8 M incubated for 48 hrs by sulforhodamine B assay relative to control; conditions: IGROV-1, 48 h, read-out: Activity
[9] = tested on: Hs-578T; assay: Growth inhibition of human Hs 578T cells assessed as cell growth at 10^-8 M incubated for 48 hrs by sulforhodamine B assay relative to control; conditions: read-out: Activity
[10] = tested on: BT-549; assay: Growth inhibition of human BT549 cells assessed as cell growth at 10^-8 M incubated for 48 hrs by sulforhodamine B assay relative to control; conditions: BT-549, 48 h, read-out: Activity
[11] = tested on: MOLT-4; assay: Growth inhibition of human MOLT4 cells assessed as cell growth at 10^-7 M incubated for 48 hrs by sulforhodamine B assay relative to control; conditions: MOLT-4, 48 h, read-out: Activity
[12] = tested on: SR; assay: Growth inhibition of human SR cells assessed as cell growth at 10^-7 M incubated for 48 hrs by sulforhodamine B assay relative to control; conditions: read-out: Activity
[13] = tested on: EKVX; assay: Growth inhibition of human EKVX cells assessed as cell growth at 10^-7 M incubated for 48 hrs by sulforhodamine B assay relative to control; conditions: read-out: Activity
[14] = tested on: NCI-H522; assay: Growth inhibition of human NCI-H522 cells assessed as cell growth at 10^-7 M incubated for 48 hrs by sulforhodamine B assay relative to control; conditions: NCI-H522, 48 h, read-out: Activity
[15] = tested on: KM12; assay: Growth inhibition of human KM12 cells assessed as cell growth at 10^-7 M incubated for 48 hrs by sulforhodamine B assay relative to control; conditions: KM12, 48 h, read-out: Activity
[16] = tested on: SF-295; assay: Growth inhibition of human SF295 cells assessed as cell growth at 10^-7 M incubated for 48 hrs by sulforhodamine B assay relative to control; conditions: SF-295, 48 h, read-out: Activity
[17] = tested on: SN12C; assay: Growth inhibition of human SN12C cells assessed as cell growth at 10^-7 M incubated for 48 hrs by sulforhodamine B assay relative to control; conditions: read-out: Activity
[18] = tested on: U-251; assay: Growth inhibition of human U251 cells assessed as cell growth at 10^-6 M incubated for 48 hrs by sulforhodamine B assay relative to control; conditions: U-251, 48 h, read-out: Activity
[19] = tested on: SK-MEL-5; assay: Growth inhibition of human SK-MEL-5 cells assessed as cell growth at 10^-6 M incubated for 48 hrs by sulforhodamine B assay relative to control; conditions: SK-MEL-5, 48 h, read-out: Activity
[20] = tested on: SK-OV-3; assay: Growth inhibition of human SKOV3 cells assessed as cell growth at 10^-6 M incubated for 48 hrs by sulforhodamine B assay relative to control; conditions: SK-OV-3, 48 h, read-out: Activity
[21] = tested on: A498; assay: Growth inhibition of human A498 cells assessed as cell growth at 10^-6 M incubated for 48 hrs by sulforhodamine B assay relative to control; conditions: A498, 48 h, read-out: Activity
[22] = tested on: K562; assay: Growth inhibition of human K562 cells assessed as cell growth at 10^-5 M incubated for 48 hrs by sulforhodamine B assay relative to control; conditions: K562, 48 h, read-out: Activity
[23] = tested on: HOP-62; assay: Growth inhibition of human HOP62 cells assessed as cell growth at 10^-5 M incubated for 48 hrs by sulforhodamine B assay relative to control; conditions: HOP-62, 48 h, read-out: Activity
[24] = tested on: SK-MEL-5; assay: Growth inhibition of human SK-MEL-5 cells assessed as cell growth at 10^-5 M incubated for 48 hrs by sulforhodamine B assay relative to control; conditions: SK-MEL-5, 48 h, read-out: Activity
[25] = tested on: TK-10; assay: Growth inhibition of human TK10 cells assessed as cell growth at 10^-5 M incubated for 48 hrs by sulforhodamine B assay relative to control; conditions: TK-10, 48 h, read-out: Activity
[26] = tested on: MDA-MB-231; assay: Growth inhibition of human MDA-MB-231 cells assessed as cell growth at 10^-5 M incubated for 48 hrs by sulforhodamine B assay relative to control; conditions: MDA-MB-231, 48 h, read-out: Activity
[27] = tested on: BT-549; assay: Growth inhibition of human BT549 cells assessed as cell growth at 10^-5 M incubated for 48 hrs by sulforhodamine B assay relative to control; conditions: BT-549, 48 h, read-out: Activity
[28] = tested on: NCI-H226; assay: Growth inhibition of human NCI-H226 cells assessed as cell growth at 10^-4 M incubated for 48 hrs by sulforhodamine B assay relative to control; conditions: NCI-H226, 48 h, read-out: Activity
[29] = tested on: NCI-H322M; assay: Growth inhibition of human NCI-H322M cells assessed as cell growth at 10^-4 M incubated for 48 hrs by sulforhodamine B assay relative to control; conditions: read-out: Activity
[30] = tested on: HCC 2998; assay: Growth inhibition of human HCC2998 cells assessed as cell growth at 10^-4 M incubated for 48 hrs by sulforhodamine B assay relative to control; conditions: HCC 2998, 48 h, read-out: Activity
[31] = tested on: HCT-116; assay: Growth inhibition of human HCT116 cells assessed as cell growth at 10^-4 M incubated for 48 hrs by sulforhodamine B assay relative to control; conditions: HCT-116, 48 h, read-out: Activity
[32] = tested on: LOX IMVI; assay: Growth inhibition of human LOXIMVI cells assessed as cell growth at 10^-4 M incubated for 48 hrs by sulforhodamine B assay relative to control; conditions: read-out: Activity
[33] = tested on: SK-OV-3; assay: Growth inhibition of human SKOV3 cells assessed as cell growth at 10^-4 M incubated for 48 hrs by sulforhodamine B assay relative to control; conditions: SK-OV-3, 48 h, read-out: Activity
[34] = tested on: A498; assay: Growth inhibition of human A498 cells assessed as cell growth at 10^-4 M incubated for 48 hrs by sulforhodamine B assay relative to control; conditions: A498, 48 h, read-out: Activity

CCCCOc1nc2ccccc2cc1C1CNC(=O)c2ccccc2N1 (centres undefined)
growth at 0.01 µM [1]: 102% | growth at 0.01 µM [2]: 86% | growth at 0.01 µM [3]: 76% | growth at 0.01 µM [4]: 95% | growth at 0.01 µM [5]: 88% | growth at 0.01 µM [6]: 96% | growth at 0.01 µM [7]: 97% | growth at 0.01 µM [8]: 97% | growth at 0.01 µM [9]: 89% | growth at 0.01 µM [10]: 105% | growth at 0.1 µM [11]: 94% | growth at 0.1 µM [12]: 64% | growth at 0.1 µM [13]: 97% | growth at 0.1 µM [14]: 107% | growth at 0.1 µM [15]: 98% | growth at 0.1 µM [16]: 88% | growth at 0.1 µM [17]: 90% | growth at 1 µM [18]: 85% | growth at 1 µM [19]: 73% | growth at 1 µM [20]: 80% | growth at 1 µM [21]: 42% | growth at 10 µM [22]: 7% | growth at 10 µM [23]: 19% | growth at 10 µM [24]: 10% | growth at 10 µM [25]: 31% | growth at 10 µM [26]: 25% | growth at 10 µM [27]: 36% | growth at 100 µM [28]: -32% | growth at 100 µM [29]: -16% | growth at 100 µM [30]: -20% | growth at 100 µM [31]: -67% | growth at 100 µM [32]: -81% | growth at 100 µM [33]: -21% | growth at 100 µM [34]: -38%

From ChEMBL document CHEMBL4138146, “A Schmidt rearrangement-mediated synthesis of novel tetrahydro-benzo[1,4]diazepin-5-ones as potential anticancer and antiprotozoal agents” (Eur J Med Chem, 2017)
